Results on four compounds are retold here after US20100137161A1, “METHOD OF GENERATING A PLATELET […] FOR AN INDIVIDUAL” (ROYAL COLLEGE OF SURGEONS IN IRELAND, priority 2006, published 2010).

This assay concerns platelet rich plasma (PRP). Nature of the assay: 96 well plate light transmission platelet aggregation assay, dose response to multiple agonists. The note with it: for platelet reactivity induced by the agonist (dose response curve): PRP of an inflamed rheumatoid arthritis patient, compared to the normal population (n=50), FIG. 3. It counts as cell-based. On the procedure: Healthy subjects who had not taken any antiplatelet medication in the 14 days prior to the study were recruited. Subjects refrained from intensive exercise and tobacco use for 4 hours prior to early morning phlebotomy. Blood was drawn from the antecubital fossa. The first 5 ml taken was discarded to avoid unwanted platelet activation and the next 27 ml of blood was collected in 3 ml of 3.2% sodium citrate anticoagulant. This blood citrate mixture was then centrifuged at 150 g for 10 min to recover the supernatant platelet rich plasma (PRP). The platelet concentration was measured using a Sysmex KX 21N.
A 96 well black isoplate with clear bottoms was used. Agonists were arranged in rows of Row 1—Arachidonic Acid (AA), Row 2—Collagen, Row 3—ADP, Row 4—Epinephrine, Row 5—Thrombin related activated peptide (TRAP) and Row 6 as a control row containing 4 wells of PRP and 4 wells of Platelet Poor Plasma (PPP). The remaining 6 rows maybe used for additional agonists or specific peptides as required.
Buffer A (6 mM Dextrose, 130 mM NaCl, 9 mM NaHCO3, 10 mM trisodium citrate, 10 mM Tris Base, 3 mM KCl, 0.81 mM KH2PO4, and 0.9 mM MgCl26H2O [pH7.4]) was added to wells 2-8 on each row using a 12 channel pipette. Row 1—10 μl of buffer A was inserted into well 2. Then 20 μl of buffer A was added to each of the wells 3-8 inclusive. Then 50 μl of AA (500 mg/ml stock) was inserted into well 1. 30 μl of AA was removed from well 1 and mixed with buffer A in well 2. 20 μl of the AA/buffer A was removed from well 2 and mixed in well 3. 20 μl is then removed from well 3 and mixed in well 4. This is repeated throughout the row up to and including well 8 with 20 μl left over and discarded. Row 2—Collagen (1.9 mg.ml stock) same process as Row 1. Row 3 & 5 ADP (Row 3) and TRAP (Row 5), wells 2-8 had 20 μl of buffer A placed into each. A quantity of 40 μl of ADP (200 μM stock) was placed into well 1. 20 μl of agonist was removed from well 1 and placed into well 2 where it was then mixed thoroughly with buffer A. This same process was then repeated across the plate with 20 μl left over after well 8. This was then discarded. The same process is repeated for Row 5—TRAP (200 μM stock). […]
The plate is then placed into a Wallac Victor 3 plate reader. The plate is read at time zero (T0) at absorbance 572 nm. […] T3 (3 minutes) read is taken and then shaking recommences until T9 (9 minutes) read. Further reads are taken at T15 (15 minutes) and T18 (18 minutes) with shaking in between each time-point. […]
The data is then normalised from the PPP and PRP absorbance values which represent minimum and maximum aggregation. […]

For `CNC[C@H](O)c1ccc(O)c(O)c1` [Epinephrine], the “platelet reactivity induced by the agonist (dose response curve)” value (“platelet reactivity induced” below) was “excessive platelet reactivity”.

For `CCCCC/C=C\C/C=C\C/C=C\C/C=C\CCCC(=O)O` [Arachidonic Acid], the “platelet reactivity induced” value is listed as “excessive platelet reactivity”.

In the case of `CC(=O)Oc1ccccc1C(=O)O` [aspirin (soluble), aspirin], the “inhibition of the COX pathway, arachidonic acid dose response curve” value (same male, visit 2, 4 weeks later, aspirin (soluble) 150 mg with clopidogrel 75 mg once daily, FIG. 7) is reported as “clearly inhibited”.

For `Nc1ncnc2c1ncn2[C@@H]1O[C@H](COP(=O)(O)OP(=O)(O)O)[C@@H](O)[C@H]1O` [ADP], the “platelet reactivity induced” value was “excessive platelet reactivity”.
